# Where two headings read alike, the source gives them in different places.
# Legend:
# [1] = target: T1, EGFR (d746-750) (Homo sapiens, UniProt P00533, DEL746-750); experiment: Biochemical EGFR inhibition assay (Caliper mobility shift), EGFR (d746-750); details: read-out: Enz EGFR_Exon19-del746-750 IC50
# T1 construct: purchased SignalChem E10-122JG
# [2] = target: intracellular phosphorylation of EGFR (Tyr1068) in PC-9 cells (Ex19Del) (Homo sapiens, UniProt P00533, DEL746-750); experiment: PC-9 pEGFR AlphaLISA assay; assay type: cell-based; details: 4 hours compound incubation, read-out: Ext pEGFR_PC-9 Ex19Del IC50
# [3] = target: T2, EGFR L858R (Homo sapiens, UniProt P00533, L858R); experiment: Biochemical EGFR inhibition assay (Caliper mobility shift), EGFR L858R; details: read-out: Enz EGFR_L858R IC50
# T2 construct: purchased SignalChem E10-122BG
# [4] = 1.0 mM ATP or ATP Km, room temperature (25° C.)
# intracellular phosphorylation of EGFR (Tyr1068) in PC-9 cells (Ex19Del), sequence (P00533 with tags, fused parts or gaps DEL746-750): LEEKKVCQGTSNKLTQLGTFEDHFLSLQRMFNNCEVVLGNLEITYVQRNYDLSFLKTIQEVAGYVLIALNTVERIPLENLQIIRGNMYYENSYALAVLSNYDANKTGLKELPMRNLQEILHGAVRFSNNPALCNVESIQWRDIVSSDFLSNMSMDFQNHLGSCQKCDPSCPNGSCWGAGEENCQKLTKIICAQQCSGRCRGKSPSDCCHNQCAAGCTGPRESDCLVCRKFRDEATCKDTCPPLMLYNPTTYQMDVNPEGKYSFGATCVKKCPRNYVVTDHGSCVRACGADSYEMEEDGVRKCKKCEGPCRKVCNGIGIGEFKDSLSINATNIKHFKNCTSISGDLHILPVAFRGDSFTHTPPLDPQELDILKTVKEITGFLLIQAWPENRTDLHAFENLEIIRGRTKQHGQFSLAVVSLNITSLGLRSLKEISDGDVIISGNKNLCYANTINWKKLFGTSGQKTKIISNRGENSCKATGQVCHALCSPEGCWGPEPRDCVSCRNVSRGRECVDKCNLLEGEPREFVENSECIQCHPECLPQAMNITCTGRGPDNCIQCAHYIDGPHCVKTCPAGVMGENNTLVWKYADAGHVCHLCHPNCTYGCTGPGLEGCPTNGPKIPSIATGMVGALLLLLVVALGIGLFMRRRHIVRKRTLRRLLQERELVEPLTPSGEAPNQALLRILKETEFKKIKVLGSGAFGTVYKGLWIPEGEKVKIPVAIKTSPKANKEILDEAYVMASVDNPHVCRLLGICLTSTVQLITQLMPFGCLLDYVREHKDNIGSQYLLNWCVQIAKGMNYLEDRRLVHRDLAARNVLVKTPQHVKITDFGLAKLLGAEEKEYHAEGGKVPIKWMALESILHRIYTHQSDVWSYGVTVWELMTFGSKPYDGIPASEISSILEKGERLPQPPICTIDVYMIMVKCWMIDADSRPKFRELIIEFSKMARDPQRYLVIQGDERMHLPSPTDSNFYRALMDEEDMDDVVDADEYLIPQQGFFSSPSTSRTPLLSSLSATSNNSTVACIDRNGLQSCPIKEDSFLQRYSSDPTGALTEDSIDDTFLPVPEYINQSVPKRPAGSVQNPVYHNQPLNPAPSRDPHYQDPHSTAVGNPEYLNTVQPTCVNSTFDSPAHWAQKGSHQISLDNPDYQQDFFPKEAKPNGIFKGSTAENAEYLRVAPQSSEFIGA
# T1 sequence (P00533 with tags, fused parts or gaps DEL746-750 limits assumed): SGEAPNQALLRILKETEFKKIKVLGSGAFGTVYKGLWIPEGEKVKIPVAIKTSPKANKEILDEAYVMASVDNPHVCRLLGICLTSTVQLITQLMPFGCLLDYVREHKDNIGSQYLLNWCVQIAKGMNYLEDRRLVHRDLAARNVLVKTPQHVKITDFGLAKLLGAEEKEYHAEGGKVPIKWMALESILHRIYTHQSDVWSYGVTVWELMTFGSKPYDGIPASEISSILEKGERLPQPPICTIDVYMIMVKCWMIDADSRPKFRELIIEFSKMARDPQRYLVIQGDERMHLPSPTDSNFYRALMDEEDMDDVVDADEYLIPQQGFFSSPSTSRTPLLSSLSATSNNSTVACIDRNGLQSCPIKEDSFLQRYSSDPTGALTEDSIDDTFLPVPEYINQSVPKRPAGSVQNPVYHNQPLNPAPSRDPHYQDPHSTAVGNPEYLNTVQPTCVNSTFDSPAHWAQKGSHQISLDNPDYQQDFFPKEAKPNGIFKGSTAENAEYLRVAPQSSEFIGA
# T2 sequence (P00533 25-1210 L858R): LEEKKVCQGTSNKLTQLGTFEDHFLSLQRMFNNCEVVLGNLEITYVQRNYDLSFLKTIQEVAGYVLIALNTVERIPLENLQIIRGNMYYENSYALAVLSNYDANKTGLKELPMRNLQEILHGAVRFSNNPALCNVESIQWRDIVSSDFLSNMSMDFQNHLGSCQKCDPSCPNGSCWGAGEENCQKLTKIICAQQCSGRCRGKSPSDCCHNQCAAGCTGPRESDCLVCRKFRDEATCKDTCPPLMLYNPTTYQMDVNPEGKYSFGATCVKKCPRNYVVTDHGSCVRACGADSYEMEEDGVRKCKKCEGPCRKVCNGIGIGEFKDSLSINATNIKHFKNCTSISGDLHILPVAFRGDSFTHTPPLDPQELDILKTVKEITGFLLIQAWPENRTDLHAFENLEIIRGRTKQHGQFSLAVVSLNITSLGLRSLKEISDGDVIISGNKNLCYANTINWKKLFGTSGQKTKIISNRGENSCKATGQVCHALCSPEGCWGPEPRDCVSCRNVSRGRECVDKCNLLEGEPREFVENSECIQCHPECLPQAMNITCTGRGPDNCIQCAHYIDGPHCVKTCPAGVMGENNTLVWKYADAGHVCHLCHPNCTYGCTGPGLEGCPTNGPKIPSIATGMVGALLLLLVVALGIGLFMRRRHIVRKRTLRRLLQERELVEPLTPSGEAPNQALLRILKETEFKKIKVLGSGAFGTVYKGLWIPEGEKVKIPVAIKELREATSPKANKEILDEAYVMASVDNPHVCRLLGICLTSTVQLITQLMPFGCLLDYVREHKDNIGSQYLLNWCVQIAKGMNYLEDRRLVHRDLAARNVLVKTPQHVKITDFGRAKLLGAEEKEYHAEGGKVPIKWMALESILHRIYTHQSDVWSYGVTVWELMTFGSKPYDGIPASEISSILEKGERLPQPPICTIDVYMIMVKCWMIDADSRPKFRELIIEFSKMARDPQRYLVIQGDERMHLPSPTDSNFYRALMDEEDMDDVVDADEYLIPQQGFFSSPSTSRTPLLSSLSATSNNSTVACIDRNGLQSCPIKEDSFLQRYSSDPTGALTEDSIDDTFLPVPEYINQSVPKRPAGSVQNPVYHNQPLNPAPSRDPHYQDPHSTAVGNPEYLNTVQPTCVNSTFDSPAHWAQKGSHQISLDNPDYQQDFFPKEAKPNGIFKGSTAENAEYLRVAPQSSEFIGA
SMILES,IC50 [1],IC50 [2],IC50 [3],"IC50 [1, 4]","IC50 [3, 4]"
"C[C@H](CN(C)C)Oc1cc(-c2cnn(C)c2)cc2ncnc(Nc3ccc4nnccc4c3F)c12 [Example 41, (R)—N-(5-((1-(dimethylamino)propan-2-yl)oxy)-7-(1-methyl-1H-pyrazol-4-yl)quinazolin-4-yl)-5-fluorocinnolin-6-amine]",10.1 to 50 nM,> 50.1 nM,> 50.1 nM,,
"C[C@H](CN(C)C)Oc1cc(-c2cnn(C)c2)cc2ncnc(Nc3ccc4nnccc4c3)c12 [Example 11, (R)—N-(5-((1-(dimethylamino)propan-2-yl)oxy)-7-(1-methyl-1H-pyrazol-4-yl)quinazolin-4-yl)cinnolin-6-amine]",10.1 to 50 nM,> 50.1 nM,> 50.1 nM,,
"CC(Oc1cc(-c2cnn(C)c2)cc2ncnc(Nc3ccc4ncccc4c3F)c12)C1(N(C)C)COC1 (stereo not drawn) [Example 142, 5-(1-(3-(dimethylamino)oxetan-3-yl)ethoxy)-N-(5-fluoroquinolin-6-yl)-7-(1-methyl-1H-pyrazol-4-yl)quinazolin-4-amine]",< 10 nM,≤ 10 nM,< 10 nM,,
"C[C@H](CN(C)C)Oc1cc(-n2cc(F)cn2)cc2ncnc(Nc3ccc4ncccc4c3F)c12 [Example 82, (R)-5-((1-(dimethylamino)propan-2-yl)oxy)-7-(4-fluoro-1H-pyrazol-1-yl)-N-(5-fluoroquinolin-6-yl)quinazolin-4-amine]",< 10 nM,≤ 10 nM,< 10 nM,,
"C[C@H](CN(C)C)Oc1cc(N(C)C)cc2ncnc(Nc3ccc4ncccc4c3F)c12 [Example 153, (R)-5-((1-(dimethylamino)propan-2-yl)oxy)-N4-(5-fluoroquinolin-6-yl)-N7,N7-dimethylquinazoline-4,7-diamine]",< 10 nM,≤ 10 nM,10.1 to 50 nM,,
"CC(=O)N1C2CC1CN(c1cc(O[C@H](C)CN(C)C)c3c(Nc4ccc5ncccc5c4F)ncnc3c1)C2 [Example 151, 1-(3-(5-(((R)-1-(dimethylamino)propan-2-yl)oxy)-4-((5-fluoroquinolin-6-yl)amino)quinazolin-7-yl)-3,6-diazabicyclo[3.1.1]heptan-6-yl)ethan-1-one]",10.1 to 50 nM,> 50.1 nM,> 50.1 nM,,
"C[C@@H](CN(C)C)Oc1cc(N2CC3CC(C2)O3)cc2ncnc(Nc3ccc4ncccc4c3)c12 (single isomer, unassigned) [Example 68, 7-(6-oxa-3-azabicyclo[3.1.1]heptan-3-yl)-5-(((S)-1-(dimethylamino)propan-2-yl)oxy)-N-(quinolin-6-yl)quinazolin-4-amine or 7-(6-oxa-3-azabicyclo[3.1.1]heptan-3-yl)-5-(((R)-1-(dimethylamino)propan-2-yl)oxy)-N-(quinolin-6-yl)quinazolin-4-amine]",,≤ 10 nM,,< 10 nM,10.1 to 50 nM
"C[C@H](CN(C)C)Oc1cc(N2CCS(=O)(=O)CC2)cc2ncnc(Nc3ccc4ncccc4c3F)c12 [Example 81, (R)-4-(5-((1-(dimethylamino)propan-2-yl)oxy)-4-((5-fluoroquinolin-6-yl)amino)quinazolin-7-yl)thiomorpholine 1,1-dioxide]",> 50.1 nM,> 50.1 nM,> 50.1 nM,,
"CN(C)C[C@@H](Oc1cc(-c2cnn(C)c2)cc2ncnc(Nc3ccc4ncccc4c3F)c12)C(F)F (single isomer, unassigned) [Example 38, (R)-5-((3-(dimethylamino)-1,1-difluoropropan-2-yl)oxy)-N-(5-fluoroquinolin-6-yl)-7-(1-methyl-1H-pyrazol-4-yl)quinazolin-4-amine or (S)-5-((3-(dimethylamino)-1,1-difluoropropan-2-yl)oxy)-N-(5-fluoroquinolin-6-yl)-7-(1-methyl-1H-pyrazol-4-yl)quinazolin-4-amine]",,10.1 to 50 nM,,< 10 nM,10.1 to 50 nM
"C[C@H](CN(C)C)Oc1cc(-c2cnn(C)c2)cc2ncnc(Nc3cc(O)c4ncccc4c3F)c12 [Example 122, (R)-6-((5-((1-(dimethylamino)propan-2-yl)oxy)-7-(1-methyl-1H-pyrazol-4-yl)quinazolin-4-yl)amino)-5-fluoroquinolin-8-ol]",< 10 nM,≤ 10 nM,< 10 nM,,
"CC[C@H](Oc1cc(-c2cnn(C)c2)cc2ncnc(Nc3ccc4ncccc4c3F)c12)C1COC1 (single isomer, unassigned) [Example 23, (S)—N-(5-fluoroquinolin-6-yl)-7-(1-methyl-1H-pyrazol-4-yl)-5-(1-(oxetan-3-yl)propoxy)quinazolin-4-amine or ((R)—N-(5-fluoroquinolin-6-yl)-7-(1-methyl-1H-pyrazol-4-yl)-5-(1-(oxetan-3-yl)propoxy)quinazolin-4-amine]",,≤ 10 nM,,< 10 nM,< 10 nM
"C[C@H](CN(C)C)Oc1cc(C2CC2)cc2ncnc(Nc3ccc4ncccc4c3F)c12 [Example 149, (R)-7-cyclopropyl-5-((1-(dimethylamino)propan-2-yl)oxy)-N-(5-fluoroquinolin-6-yl)quinazolin-4-amine]",10.1 to 50 nM,> 50.1 nM,> 50.1 nM,,
"C[C@@H](CN(C)C)Oc1cc(-c2cnn(C)c2)cc2ncnc(Nc3ccc4ncccc4c3)c12 (single isomer, unassigned) [Example 44, (S)-5-((1-(dimethylamino)propan-2-yl)oxy)-7-(1-methyl-1H-pyrazol-4-yl)-N-(quinolin-6-yl)quinazolin-4-amine or (R)-5-((1-(dimethylamino)propan-2-yl)oxy)-7-(1-methyl-1H-pyrazol-4-yl)-N-(quinolin-6-yl)quinazolin-4-amine]",,≤ 10 nM,,< 10 nM,< 10 nM
"C[C@H](CN(C)C)Oc1cc(N2CCCC2=O)cc2ncnc(Nc3ccc4ncccc4c3F)c12 [Example 96, (R)-1-(5-((1-(dimethylamino)propan-2-yl)oxy)-4-((5-fluoroquinolin-6-yl)amino)quinazolin-7-yl)pyrrolidin-2-one]",< 10 nM,≤ 10 nM,10.1 to 50 nM,,
"C[C@H](CN(C)C)Oc1cc(N2C3COCC2C3)cc2ncnc(Nc3ccc4ncccc4c3F)c12 [Example 89, 7-(3-oxa-6-azabicyclo[3.1.1]heptan-6-yl)-5-(((R)-1-(dimethylamino)propan-2-yl)oxy)-N-(5-fluoroquinolin-6-yl)quinazolin-4-amine]",> 50.1 nM,> 50.1 nM,> 50.1 nM,,

# The next lines start with the values.
IC50 [1],IC50 [2],IC50 [3],"IC50 [1, 4]","IC50 [3, 4]",SMILES
< 10 nM,≤ 10 nM,< 10 nM,,,C[C@@H](Oc1cc(N2CC3(COC3)C2)cc2ncnc(Nc3ccc4ncccc4c3F)c12)C1COC1 [Example 64]
< 10 nM,≤ 10 nM,< 10 nM,,,"C[C@H](CN(C)C)Oc1cc(N2CC[C@H](C(C)(C)O)C2)cc2ncnc(Nc3c(F)cc4ncccc4c3F)c12 [Example 88, 2—((S)-1-(4-((5,7-difluoroquinolin-6-yl)amino)-5-(((R)-1-(dimethylamino)propan-2-yl)oxy)quinazolin-7-yl)pyrrolidin-3-yl)propan-2-ol]"
< 10 nM,≤ 10 nM,< 10 nM,,,"CC(=O)N1CC2(C1)CN(c1cc(O[C@H](C)CN(C)C)c3c(Nc4ccc5ncccc5c4F)ncnc3c1)C2 [Example 154, (R)-1-(6-(5-((1-(dimethylamino)propan-2-yl)oxy)-4-((5-fluoroquinolin-6-yl)amino)quinazolin-7-yl)-2,6-diazaspiro[3.3]heptan-2-yl)ethan-1-one]"
< 10 nM,≤ 10 nM,< 10 nM,,,"C[C@@H](Oc1cc(N2CCOCC2)cc2ncnc(Nc3ccc4ncccc4c3F)c12)C1COC1 [Example 61, (R)—N-(5-fluoroquinolin-6-yl)-7-morpholino-5-(1-(oxetan-3-yl)ethoxy)quinazolin-4-amine]"
< 10 nM,≤ 10 nM,10.1 to 50 nM,,,"C[C@H](CN(C)C)Oc1cc(N2CC3CC(C2)O3)cc2ncnc(Nc3ccc4ncccc4c3F)c12 [Example 70, 7-(6-oxa-3-azabicyclo[3.1.1]heptan-3-yl)-5-(((R)-1-(dimethylamino)propan-2-yl)oxy)-N-(5-fluoroquinolin-6-yl)quinazolin-4-amine]"
< 10 nM,≤ 10 nM,< 10 nM,,,"C[C@@H](Oc1cc(N2CC[C@@H](N(C)C)C2)cc2ncnc(Nc3ccc4ncccc4c3F)c12)C1COC1 [Example 79, 7—((R)-3-(dimethylamino)pyrrolidin-1-yl)-N-(5-fluoroquinolin-6-yl)-5-((R)-1-(oxetan-3-yl)ethoxy)quinazolin-4-amine]"
< 10 nM,≤ 10 nM,< 10 nM,,,"[2H]c1c(-c2cnn(C)c2)cc(O[C@H](C)CN(C)C)c2c(Nc3ccc4ncccc4c3F)ncnc12 [Example 158, (R)-5-((1-(dimethylamino)propan-2-yl)oxy)-N-(5-fluoroquinolin-6-yl)-7-(1-methyl-1H-pyrazol-4-yl)quinazolin-8-d-4-amine]"
,≤ 10 nM,,< 10 nM,< 10 nM,"CO[C@@H]1CCN(c2cc(O[C@H](C)C3COC3)c3c(Nc4ccc5ncccc5c4F)ncnc3c2)C1 (single isomer, unassigned) [Example 85a, N-(5-fluoroquinolin-6-yl)-7-((R)-3-methoxypyrrolidin-1-yl)-5-((R)-1-(oxetan-3-yl)ethoxy)quinazolin-4-amine or N-(5-fluoroquinolin-6-yl)-7-((S)-3-methoxypyrrolidin-1-yl)-5-((R)-1-(oxetan-3-yl)ethoxy)quinazolin-4-amine]"

# — patent US12662465B2, “EGFR inhibitors” (Blueprint Medicines Corporation, priority 2021, dated 2026)
